Source: publication PMC5962729 (Frontiers in Pharmacology, 2018)

What was measured:
[1] = Identification of components and metabolites of YCHD in rat plasma, bile, urine and feces (UHPLC/Q-TOF-MS); assay type: in vivo; details: rats, oral YCHD 12 g/kg, urine, feces
Experimental: After centrifuging at 4000 rpm for 10 min, supernatant plasma was harvested into heparinized tubes and then stored at -20°C for preservation. The rats in the second group (n = 6) were kept individually in metabolic cages to collect urine and feces. […] Subsequently, the rats were orally administered a single dose of YCHD (12 g/kg of body weight). […] For the third group of rats (n = 6), bile duct intubation was implemented, and blank bile samples were collected before administration. After the administration of YCHD at 12 g/kg of body weight, the drug-containing bile samples were collected.
Plasma, bile, and urine samples (200 μL each) were separately precipitated with six times of methanol–acetonitrile mixed solution (v/v, 1:1; containing 1% formic acid). After being vortex mixed for 5 min and centrifuged at 15,000 rpm for 5 min at 4°C, the supernatant was separated into another clean tube and dried under a gentle stream of nitrogen at 45°C. Subsequently, the residue was reconstituted in 100 μL of 50% methanol–water (v/v) and then vortex mixed for 10 min. After another round of centrifugation at 15,000 rpm for 5 min at 4°C, 5 μL of the supernatant was analyzed by UHPLC-MS/MS. A 0.5 g sample of naturally dried feces was supplemented with 2 mL of 80% methanol–water (v/v) and then ultrasonically extracted for 30 min at 4°C. After being centrifuged at 15,000 rpm for 10 min, the supernatant was dried under a gentle stream of nitrogen at 45°C. Finally, the residue was reconstituted in 1 mL of 50% methanol–water (v/v) and then vortex mixed for 10 min. After another round of centrifugation at 15,000 rpm for 5 min at 4°C, 5 μL of the supernatant sample was injected into the UHPLC-MS/MS system for analysis.
Separations were conducted on an Agilent SB-C18 column (2.1 mm × 50 mm, 1.8 μm) of a UHPLC/Q-TOF-MS system (Waters, Corp., Milford, MA, United States) maintained at 40°C.
A Synapt G2 quadrupole time-of-flight (Q/TOF) MS/MS system (Waters, Corp., Manchester, United Kingdom) equipped with an electrospray ionization (ESI) interface was operated in negative ionization mode and controlled by MassLynx software (Version 4.1). The optimized conditions for maximum detection of metabolites were as follows: the capillary voltage was set at 3.0 kV, extraction cone voltage was set at 10 and 15 V, source temperature was maintained at 120°C, and desolvation temperature was maintained at 450°C. […] An MS^E approach using a dynamic ramp of collision energy was also applied at two (low and high collision energies) scan functions. The following parameters were set: Function 1 (low energy)—mass scan range, 100–1000; scan time, 0.25 s; interscan delay, 0.05 s; collision energy, 4 V. Function 2 (high energy)—mass scan range, 100–1000; scan time, 0.2 s; interscan delay, 0.05 s; collision energy ramp, 10–30 V. Data were acquired using Masslynx^TM (Version 4.1. Waters, Crop., Milford, MA, United States), and Metabolynx^TM (Waters, Crop., Milford, MA, United States) was applied for post-acquisition data processing.

[2] = Pharmacokinetic study of YCHD components and phase II metabolites in normal rats (UHPLC-MS/MS, sulfatase enzymolysis); assay type: in vivo, rat; details: for direct detection of the prototype in rat plasma after YCHD administration: before enzymolysis, transformed into phase II metabolites completely; for Tmax: po, 12 g/kg; for CL/F: read-out: CLz/F; for Vd/F: read-out: Vz/F
Experimental: (§1) To explore the pharmacokinetic properties of YCHD following intragastric administration in rats, a rapid and sensitive method involving the use of UHPLC-MS/MS (Agilent 6460 series, Agilent Technologies, Santa Clara, CA, United States) was developed and validated for the simultaneous quantification of 10 active components of rat plasma. The quantification was conducted in ESI negative ionization mode, and the mass spectrometry conditions were as follows: capillary voltage, 3500 V; gas flow, 12 L/min; nebulizer, 40 psi; gas temperature, 350°C; and delta EMV (-), 400. A 5 μL extraction sample was injected into the column (Agilent SB-C18 column, 2.1 mm × 50 mm, 1.8 μm) and eluted at 0.4 mL/min with a gradient elution of water (with 0.4% v/v formic acid) (A) and acetonitrile (B) (0–3 min, 5–60% B; 3–5 min, 60–90% B; 5–5.1 min, 90–5% B; and re-equilibration for 3 min).
(§2) To each 50 μL plasma sample, 10 μL of internal standard solution (paeoniflorin, 1000 ng/mL) and 300 μL of a mixed solution of methanol and acetonitrile (v/v, 1:1; containing 1% formic acid) were added. Subsequently, the solution was vortex mixed for 5 min. After centrifugation at 15,000 rpm for 5 min, the supernatant was transferred completely into a tube, before being evaporated under N2 at 40°C. The residue was then dissolved in 50 μL of 50% methanol–water (v/v, 1:1) through vortexing for 5 min, after centrifugation at 15,000 rpm for 10 min. Finally, 5 μL of the supernatant sample was injected into the UHPLC-MS/MS system for analysis.
The rats were randomly divided into two groups (n = 5 for each group). […] After 24 h, the two groups of rats received a single oral dose of YCHD (12 g/kg). Blood was collected in heparinized tubes at 5, 15, 30, 45, 60, 120, 240, 360, 480, 720, and 1440 min after administration. The blood samples were centrifuged at 4000 rpm for 10 min, and the supernatant plasma was harvested. Plasma samples (50 μL) were immediately processed as outlined in Section “Chromatographic and Mass Spectrometry Conditions.”
(§3) Additional plasma samples (50 μL) were enzymatically hydrolyzed with 50 μL of enzyme solution (65.86 mg of sulfatase, dissolved in 2 mL of sodium acetate buffer, pH 5.0) for phase II metabolite quantification, in accordance with our previous study ([Ding et al., 2012]). After being vortex mixed for 5 min, the mixture was incubated at 37°C for 30 min and then returned to room temperature. Subsequently, the samples were processed as outlined in Section “Chromatographic and Mass Spectrometry Conditions” for UHPLC-MS/MS analysis. During routine analysis, each analytical run included six blank plasma samples, a set of calibration samples, a set of QC samples, and unknowns.
(§4) All data are presented as mean ± SD. A one-way analysis of variance was used to compare data between two groups using SPSS (Version 21.0). The differences were considered to be statistically significant when p < 0.05 and highly significant when p < 0.01 or p < 0.001. Pharmacokinetic data analysis was performed using DAS 2.1.1 software (Mathematical Pharmacology Professional Committee of China, Shanghai, China).
After sulfatase-aided enzymolysis, all the phase II metabolites could transform into their prototypes, including rhein, emodin, genipin, and capillarisin. The specific contents of the phase II metabolites of these components were detected indirectly by evaluating the content difference of their prototypes in samples after enzymolysis and before enzymolysis
(§5) CG = Ca −[MG × (CGG/MGG + CGe/MGe)]
Ca, CGG, and CGe represent the concentration of genipin, genipin-1-β-D-gentiobioside, and geniposide after enzymolysis of sulfatase, respectively. MG, MGG-, and MGe represent the mass of genipin, genipin-1-β-D-gentiobioside, and geniposide, respectively. The pharmacokinetic curves of phase II metabolites are illustrated in Figure 4B.

[3] = Pharmacokinetic study of YCHD components and phase II metabolites in ANIT-induced cholestatic rats (UHPLC-MS/MS, sulfatase enzymolysis); assay type: in vivo, rat; details: for AUC(0-∞) / Ka: Model group (ANIT 50 mg/kg cholestatic rats); for AUC(0-∞) / Ka / Cmax / Tmax / CL/F / MRT inf / Vd/F / half-life: plasma; for Cmax / Tmax / CL/F / MRT inf / Vd/F / half-life: rat, po, 12 g/kg; for CL/F: read-out: CLz/F; for MRT inf: read-out: MRT (0-∞) (converted); for Vd/F: read-out: Vz/F; for half-life: read-out: t1/2z
Experimental: as §1, with “400.” for “400. A 5 μL extraction sample was injected into the column (Agilent SB-C18 column, 2.1 mm × 50 mm, 1.8 μm) and eluted at 0.4 mL/min with a gradient elution of water (with 0.4% v/v formic acid) (A) and acetonitrile (B) (0–3 min, 5–60% B; 3–5 min, 60–90% B; 5–5.1 min, 90–5% B; and re-equilibration for 3 min).”
as §2
The rats were randomly divided into two groups (n = 5 for each group). […] The blood samples were centrifuged at 4000 rpm for 10 min, and the supernatant plasma was harvested. Plasma samples (50 μL) were immediately processed as outlined in Section “Chromatographic and Mass Spectrometry Conditions.”
as §3, §4
The specific contents of the phase II metabolites of these components were detected indirectly by evaluating the content difference of their prototypes in samples after enzymolysis and before enzymolysis
as §5
Ca, CGG, and CGe represent the concentration of genipin, genipin-1-β-D-gentiobioside, and geniposide after enzymolysis of sulfatase, respectively. MG, MGG-, and MGe represent the mass of genipin, genipin-1-β-D-gentiobioside, and geniposide, respectively.

[4] = Control group (normal rats), single oral YCHD 12 g/kg, plasma
[5] = Sprague Dawley, rat, plasma, in normal and cholestatic rats after oral administration of YCHD
[6] = Sprague Dawley, rat, Control group (normal rats), single oral YCHD 12 g/kg, plasma
[7] = rat, Control group (normal rats), single oral YCHD 12 g/kg, plasma

SMILES: Cc1cc(O)c2c(c1)C(=O)c1cc(O)cc(O)c1C2=O [Emodin]
- Source (biological samples in which the compound was identified) [1]: Plasma, bile, urine, feces
- direct detection of the prototype in rat plasma after YCHD administration [2]: could not be detected directly

SMILES: COc1c(O)cc2oc(Oc3ccc(O)cc3)cc(=O)c2c1O [Capillarisin]
- Source (biological samples in which the compound was identified) [1]: Urine, feces
- direct detection of the prototype in rat plasma after YCHD administration [2]: could not be detected directly

SMILES: COC(=O)C1=CO[C@@H](O)[C@@H]2C(CO)=CC[C@H]12 [Genipin]
- Source (biological samples in which the compound was identified) [1]: Bile, urine, feces
- direct detection of the prototype in rat plasma after YCHD administration [2]: could not be detected directly

SMILES: O=C(O)/C=C/c1ccc(O)c(O)c1 [Caffeic acid]
- AUC(0-∞) ([3]; single oral YCHD 12 g/kg): 32651.4 ± 19640.7 µg·min/L
- Ka ([3]; single oral YCHD 12 g/kg): 75.2 ± 24.5 min⁻¹
- Cmax ([3]; Sprague Dawley): 78.9 ± 4.9 ng/mL
- Tmax ([3]; Sprague Dawley): 24 min
- CL/F ([3]; Sprague Dawley): 1190 ± 95 mL/min/kg
- MRT inf ([3]; Sprague Dawley): 103 min
- Vd/F [3]: 132 ± 39.7 L/kg
- half-life [3]: 80.1 ± 27.5 min
- AUC(0-∞) increased by, cholestatic model rats compared with normal rats ([3]; single oral YCHD 12 g/kg): 191.3%
- AUC(0-∞) reduced by, cholestatic model rats compared with normal rats ([3]; single oral YCHD 12 g/kg): 48.9%
- Cmax increased by, cholestatic model rats compared with normal rats ([3]; single oral YCHD 12 g/kg): 138.8%
- Cmax reduced by, cholestatic model rats compared with normal rats ([3]; single oral YCHD 12 g/kg): 72.4%
- AUC(0-∞) [2, 4]: 63847.8 ± 53249.0 µg·min/L
- Ka [2, 4]: 119.2 ± 82.6 min⁻¹
- Tmax ([2]; Sprague Dawley, rat, plasma, Control group (normal rats), single oral YCHD 12 g/kg, plasma): 15 min
- Tmax [2, 5]: ≤ 27 min
- Cmax [2, 6]: 286 ± 14.5 ng/mL
- CL/F [2, 6]: 445 ± 38 mL/min/kg
- MRT inf ([2]; Sprague Dawley, rat, Control group (normal rats), single oral YCHD 12 g/kg, plasma, read-out: MRT (0-∞) (converted)): 85.3 min
- Vd/F [2, 7]: 35.7 ± 29.1 L/kg
- half-life ([2]; rat, Control group (normal rats), single oral YCHD 12 g/kg, plasma, read-out: t1/2z): 56.3 ± 43 min

SMILES: CC(=O)c1ccc(OS(=O)(=O)O)cc1 [M6, 4-Hydroxyacetophenone-1-O-SO3]
- Source (biological samples in which the compound was identified) [1]: Plasma, bile, urine, feces

SMILES: COC(=O)C1=COC(OC2OC(C(=O)O)C(O)C(O)C2O)C2C(CO)=CCC12 (stereo not shown) [M2, Genipin-1-O-gluA]
- Source (biological samples in which the compound was identified) [1]: Plasma, bile, urine, feces

SMILES: COC(=O)C1=COC(OS(=O)(=O)O)C2C(CO)=CCC12 (stereo not shown) [M3, Genipin-1-O-SO3]
- Source (biological samples in which the compound was identified) [1]: Bile, urine, feces

SMILES: O=C(/C=C/c1ccc(O)c(O)c1)O[C@@H]1C[C@](O)(C(=O)O)C[C@@H](O)[C@H]1O [Chlorogenic acid]
- AUC(0-∞) ([3]; single oral YCHD 12 g/kg): 21437.2 ± 12572.8 µg·min/L
- Ka ([3]; single oral YCHD 12 g/kg): 38.945 ± 18.022 min⁻¹
- Cmax [3]: 78.9 ± 4.9 ng/mL
- Tmax [3]: 27 min
- CL/F [3]: 1360 ± 523 mL/min/kg
- MRT inf [3]: 1990 min
- Vd/F [3]: 2110 ± 1660 L/kg
- half-life [3]: 1660 ± 2120 min
- AUC(0-∞) [2, 4]: 11559.2 ± 5248.0 µg·min/L
- Ka [2, 4]: 19.0 ± 16.288 min⁻¹
- Tmax [2, 5]: ≤ 27 min
- Tmax ([2]; rat, plasma, Control group (normal rats), single oral YCHD 12 g/kg, plasma): 15 min
- Cmax [2, 7]: 33 ± 4.5 ng/mL
- CL/F [2, 7]: 1480 ± 921 mL/min/kg
- Vd/F [2, 7]: 3800 ± 2060 L/kg

SMILES: Cc1cc(O)c2c(c1)C(=O)c1cc(OS(=O)(=O)O)cc(O)c1C2=O [M7, Emodin-O-SO3]
- Source (biological samples in which the compound was identified) [1]: Plasma, urine, feces
